Patent publication US10947188B2, “Small molecule ferroptosis inducers” (THE TRUSTEES OF COLUMBIA UNIVERSITY IN THE CITY OF NEW YORK, priority 2016, dated 2021)

Test system: BJeLR
Assay: Modulatory profiling: Alamar Blue viability, lethal compound cotreated with death modulator (EC50, AUC); as to AUC, modulator BJ.3MA: reference of the scale not given here; as to AUC, modulator BJ.ALLN: reference of the scale not given here; as to AUC, modulator BJ.Boc D: reference of the scale not given here; as to AUC, modulator BJ.CHX: reference of the scale not given here; as to AUC, modulator BJ.Co2+: reference of the scale not given here; as to AUC, modulator BJ.DPQ: reference of the scale not given here; as to AUC, modulator BJ.Gd3+: reference of the scale not given here; as to AUC, modulator BJ.LNAME: reference of the scale not given here; as to AUC, modulator BJ.NAD+: reference of the scale not given here; as to AUC, modulator BJ.NMMA: reference of the scale not given here; as to AUC, modulator BJ.Nec-1: reference of the scale not given here; as to AUC, modulator BJ.Pepstatin: reference of the scale not given here; as to AUC, modulator BJ.TLCK: reference of the scale not given here
Type: cell-based, human
Parameters: AUC, modulator BJ.Gd3+ / AUC, modulator BJ.LNAME / AUC, modulator BJ.Lmin / AUC, modulator BJ.3MA / AUC, modulator BJ.ALLN / AUC, modulator BJ.Boc D / AUC, modulator BJ.CHX / AUC, modulator BJ.Co2+ / AUC, modulator BJ.Nec-1 / AUC, modulator BJ.Pepstatin / AUC, modulator BJ.TLCK / AUC, modulator BJ.atoc / AUC, modulator BJ.trolox / AUC, modulator BJ.zVAD: unit not given beside the values
Details: BJeLR cells, modulatory profile value (AUC); for AUC, modulator BJ.3MA: lethal compound cotreated with modulator 3MA; for AUC, modulator BJ.ALLN: lethal compound cotreated with modulator ALLN; for AUC, modulator BJ.Boc D: lethal compound cotreated with modulator Boc D; for AUC, modulator BJ.CHX: lethal compound cotreated with modulator CHX; for AUC, modulator BJ.Co2+: lethal compound cotreated with modulator Co2+; for AUC, modulator BJ.DPQ: lethal compound cotreated with modulator DPQ; for AUC, modulator BJ.Gd3+: lethal compound cotreated with modulator Gd3+; for AUC, modulator BJ.LNAME: lethal compound cotreated with modulator LNAME; for AUC, modulator BJ.Lmin/NAD+: lethal compound cotreated with modulator Lmin/NAD+; for AUC, modulator BJ.Lmin: lethal compound cotreated with modulator Lmin; for AUC, modulator BJ.NAD+: lethal compound cotreated with modulator NAD+; for AUC, modulator BJ.NMMA: lethal compound cotreated with modulator NMMA; for AUC, modulator BJ.Nec-1: lethal compound cotreated with modulator Nec-1; for AUC, modulator BJ.Pepstatin: lethal compound cotreated with modulator Pepstatin; for AUC, modulator BJ.TLCK: lethal compound cotreated with modulator TLCK; for AUC, modulator BJ.atoc: lethal compound cotreated with modulator atoc; for AUC, modulator BJ.trolox: lethal compound cotreated with modulator trolox; for AUC, modulator BJ.zVAD: lethal compound cotreated with modulator zVAD

Row | Compound | AUC, modulator BJ.3MA | AUC, modulator BJ.ALLN | AUC, modulator BJ.Boc D | AUC, modulator BJ.CHX | AUC, modulator BJ.Co2+ | AUC, modulator BJ.DPQ | AUC, modulator BJ.Gd3+ | AUC, modulator BJ.LNAME | AUC, modulator BJ.Lmin/NAD+ | AUC, modulator BJ.Lmin | AUC, modulator BJ.NAD+ | AUC, modulator BJ.NMMA | AUC, modulator BJ.Nec-1 | AUC, modulator BJ.Pepstatin | AUC, modulator BJ.TLCK | AUC, modulator BJ.atoc | AUC, modulator BJ.trolox | AUC, modulator BJ.zVAD
1 | C[S+]([O-])c1nc(-c2ccc(Br)cc2)cc(-c2ccccc2)c1C#N (stereo not drawn) [CIL17] | 0.07927 | −0.07478 | −0.03116 | −0.0462 | −0.04764 | 0.004679 | −0.04 | −0.008054 | −0.03209 | −0.02464 | −0.01632 | −0.01688 | 0.02959 | 0.03912 | −0.07864 | 0.006451 | −0.001174 | −0.02313
2 | CC(C)=CCCC1=CCC(CNCCCN(C)C)C(C)C1 (stereo not drawn) [CIL28] | 0.0433 | −0.02065 | −0.02549 | −0.01119 | 0.03417 | 0.009235 | −0.07741 | −0.04858 | −0.02578 | −0.053 | 0.06231 | 0.000264 | 0.005737 | 0.06166 | −0.09417 | 0.05295 | 0.06039 | 0.006234
3 | OCCNCC(O)Cn1c2ccc(Br)cc2c2cc(Br)ccc21 (stereo not drawn) [CIL7] | 0.09188 | −0.02876 | −0.04946 | −0.01056 | 0.09999 | 0.06721 | −0.01897 | −0.03182 | 0.01771 | 0.01256 | 0.009046 | −0.01533 | 0.02534 | 0.06231 | −0.02373 | 0.0008495 | 0.0424 | −0.05834
4 | O=C1c2c(O)ccc(O)c2C(=O)c2c(NCCNCCO)ccc(NCCNCCO)c21 [Mitoxantrone] | 0.03352 | 0.06204 | 0.03746 | 0.1437 | 0.4538 | −0.05814 | 0.01069 | 0.007578 | 0.1162 | 0.04368 | 0.08733 | 0.004431 | −0.03038 | 0.003263 | 0.02288 | 0.02585 | −0.01862 | 0.0497
5 | O=C(CCCCCN1C(=O)c2cccc3cccc(c23)C1=O)NO [Scriptaid] | −0.0206 | −0.07856 | 0.03167 | 0.2681 | 0.2406 | 0.004892 | 0.0289 | 0.03611 | 0.2114 | 0.1113 | 0.1384 | 0.02102 | 0.02804 | −0.0282 | 0.07545 | −0.005396 | −0.0185 | 0.1205
6 | CC(/C=C/C(=O)NO)=C\[C@@H](C)C(=O)c1ccc(N(C)C)cc1 [TrichostatinA] | −0.004309 | −0.08774 | 0.09612 | 0.2588 | 0.3091 | −0.009523 | −0.008802 | −0.04203 | 0.1597 | 0.08423 | 0.05544 | −0.01861 | −0.04751 | −0.01284 | 0.02879 | −0.01806 | −0.02672 | 0.1198
7 | CN(C)CCCOS(=O)(=O)c1ccc(N2CCC(c3ccc(Cl)cc3)=N2)cc1 [CIL40] | 0.1131 | −0.02592 | −0.05607 | −0.1423 | 0.03348 | 0.01887 | −0.004738 | 0.002197 | −0.06069 | −0.05273 | 0.005587 | 0.05461 | 0.02442 | −0.01642 | −0.05358 | 0.05022 | 0.03943 | 0.007977
